Laboratory results from patent publication US20050004185A1, “Polyene polyketides, processes for their production and their use as pharmaceuticals” (priority 2003, published 2005).
Converted amounts (≈) assume the structure as drawn. Where two headings read alike, the source gives them in different places.

Key:
[1] = test system: SNB-19; assay: In vitro cytotoxic efficacy (MTT); format: cell-based; conditions: Homo sapiens
[2] = test system: SK-OV3; assay: In vitro cytotoxic efficacy (MTT); format: cell-based; conditions: Homo sapiens
[3] = test system: PC-3; assay: In vitro cytotoxic efficacy (MTT); conditions: Homo sapiens, PC-3, 96 h
[4] = test system: A549/ATCC; assay: In vitro cytotoxic efficacy (MTT); format: cell-based; conditions: Homo sapiens
[5] = test system: MCF7; assay: In vitro cytotoxic efficacy (MTT); format: cell-based; conditions: Homo sapiens
[6] = test system: LB1319-MEL; assay: In vitro cytotoxic efficacy (MTT); format: cell-based; conditions: Melanoma, 96 h
[7] = test system: S. cerevisiae (Scer); assay: MIC broth microdilution assay (NCCLS M27-A); conditions: Saccharomyces cerevisiae, read-out: Minimal Inhibitory Concentrations
[8] = test system: C. albicans (Calb); assay: MIC broth microdilution assay (NCCLS M27-A); format: cell-based; conditions: Candida albicans, read-out: Minimal Inhibitory Concentrations
[9] = test system: C. glabrata (Cgla); assay: MIC broth microdilution assay (NCCLS M27-A); format: cell-based; conditions: Nakaseomyces glabratus, read-out: Minimal Inhibitory Concentrations
[10] = test system: HT29; assay: In vitro cytotoxic efficacy (MTT); format: cell-based; conditions: Homo sapiens
[11] = test system: PANC-1; assay: In vitro cytotoxic efficacy (MTT); format: cell-based; conditions: Homo sapiens, Pancreatic, 96 h
[12] = test system: NCI-H460; assay: In vitro cytotoxic efficacy (MTT); format: cell-based; conditions: Homo sapiens
[13] = test system: MDA-MB-231/ATCC; assay: In vitro cytotoxic efficacy (MTT); conditions: Homo sapiens, MDA-MB-231, 96 h
[14] = test system: Candida sp. (Cflu); assay: MIC broth microdilution assay (NCCLS M27-A); format: cell-based; conditions: read-out: Minimal Inhibitory Concentrations
[15] = test system: DU-145; assay: In vitro cytotoxic efficacy (MTT); format: cell-based; conditions: Homo sapiens, Prostate, 96 h
[16] = test system: OVCAR-3; assay: In vitro cytotoxic efficacy (MTT); format: cell-based; conditions: Homo sapiens, Ovarian, 96 h
[17] = test system: C. albicans (Ctro); assay: MIC broth microdilution assay (NCCLS M27-A); format: cell-based; conditions: Candida albicans, read-out: Minimal Inhibitory Concentrations
[18] = test system: A498; assay: In vitro cytotoxic efficacy (MTT); conditions: Homo sapiens, A498, 96 h
[19] = test system: HCC-2998; assay: In vitro cytotoxic efficacy (MTT); format: cell-based; conditions: Homo sapiens, Colon, 96 h
[20] = test system: RXF 393; assay: In vitro cytotoxic efficacy (MTT); format: cell-based; conditions: Homo sapiens, Renal, 96 h
[21] = test system: LOX IMVI; assay: In vitro cytotoxic efficacy (MTT); format: cell-based; conditions: Homo sapiens, Melanoma, 96 h
[22] = test system: KM12; assay: In vitro cytotoxic efficacy (MTT); format: cell-based; conditions: Homo sapiens, Colon, 96 h
[23] = test system: OVCAR-4; assay: In vitro cytotoxic efficacy (MTT); format: cell-based; conditions: Homo sapiens, Ovarian, 96 h
[24] = test system: UACC-257; assay: In vitro cytotoxic efficacy (MTT); format: cell-based; conditions: Homo sapiens, Melanoma, 96 h
[25] = test system: MDA-MB-435; assay: In vitro cytotoxic efficacy (MTT); format: cell-based; conditions: Homo sapiens, Breast, 96 h
[26] = test system: BT-549; assay: In vitro cytotoxic efficacy (MTT); format: cell-based; conditions: Homo sapiens, Breast, 96 h
[27] = test system: HCT-15; assay: In vitro cytotoxic efficacy (MTT); format: cell-based; conditions: Homo sapiens, Colon, 96 h
[28] = test system: SK-MEL-2; assay: In vitro cytotoxic efficacy (MTT); format: cell-based; conditions: Homo sapiens, Melanoma, 96 h
[29] = test system: NCI/ADR-RES; assay: In vitro cytotoxic efficacy (MTT); format: cell-based; conditions: Homo sapiens, Breast, 96 h
[30] = test system: SF-268; assay: In vitro cytotoxic efficacy (MTT); format: cell-based; conditions: Homo sapiens, CNS, 96 h
[31] = test system: OVCAR-5; assay: In vitro cytotoxic efficacy (MTT); format: cell-based; conditions: Homo sapiens, Ovarian, 96 h
[32] = test system: OVCAR-8; assay: In vitro cytotoxic efficacy (MTT); format: cell-based; conditions: Homo sapiens, Ovarian, 96 h
[33] = test system: EKVX; assay: In vitro cytotoxic efficacy (MTT); format: cell-based; conditions: Homo sapiens, Non-small cell lung, 96 h
[34] = test system: SR; assay: In vitro cytotoxic efficacy (MTT); format: cell-based; conditions: Homo sapiens, Leukemia, 96 h
[35] = test system: SF-295; assay: In vitro cytotoxic efficacy (MTT); format: cell-based; conditions: Homo sapiens, CNS, 96 h
[36] = test system: U-251; assay: In vitro cytotoxic efficacy (MTT); format: cell-based; conditions: Homo sapiens, CNS, 96 h
[37] = test system: SK-MEL-5; assay: In vitro cytotoxic efficacy (MTT); format: cell-based; conditions: Homo sapiens, Melanoma, 96 h
[38] = test system: IGROV1; assay: In vitro cytotoxic efficacy (MTT); format: cell-based; conditions: Homo sapiens, IGROV-1, Ovarian, 96 h
[39] = test system: HCT-116; assay: In vitro cytotoxic efficacy (MTT); conditions: Homo sapiens, HCT-116, 96 h
[40] = test system: T-47D; assay: In vitro cytotoxic efficacy (MTT); format: cell-based; conditions: Homo sapiens, T47D, Breast, 96 h
[41] = test system: RPMI-8226; assay: In vitro cytotoxic efficacy (MTT); format: cell-based; conditions: Homo sapiens, Leukemia, 96 h
[42] = test system: NCI-H522; assay: In vitro cytotoxic efficacy (MTT); format: cell-based; conditions: Homo sapiens, Non-small cell lung, 96 h
[43] = test system: SW-620; assay: In vitro cytotoxic efficacy (MTT); format: cell-based; conditions: Homo sapiens, Colon, 96 h
[44] = test system: TK-10; assay: In vitro cytotoxic efficacy (MTT); format: cell-based; conditions: Homo sapiens, Renal, 96 h
[45] = test system: SNB-75; assay: In vitro cytotoxic efficacy (MTT); format: cell-based; conditions: Homo sapiens, CNS, 96 h
[46] = test system: HOP-92; assay: In vitro cytotoxic efficacy (MTT); format: cell-based; conditions: Homo sapiens, Non-small cell lung, 96 h
[47] = test system: UO-31; assay: In vitro cytotoxic efficacy (MTT); format: cell-based; conditions: Homo sapiens, Renal, 96 h
[48] = test system: K562; assay: In vitro cytotoxic efficacy (MTT); format: cell-based; conditions: Homo sapiens, Leukemia, 96 h
[49] = test system: MOLT-4; assay: In vitro cytotoxic efficacy (MTT); format: cell-based; conditions: Homo sapiens, Leukemia, 96 h
[50] = test system: COLO 205; assay: In vitro cytotoxic efficacy (MTT); format: cell-based; conditions: Homo sapiens, Colon, 96 h
[51] = test system: M14; assay: In vitro cytotoxic efficacy (MTT); format: cell-based; conditions: Homo sapiens, Melanoma, 96 h
[52] = test system: SK-MEL-28; assay: In vitro cytotoxic efficacy (MTT); format: cell-based; conditions: Homo sapiens, Melanoma, 96 h
[53] = test system: CAKI-1; assay: In vitro cytotoxic efficacy (MTT); format: cell-based; conditions: Homo sapiens, Renal, 96 h
[54] = test system: UACC; assay: In vitro cytotoxic efficacy (MTT); format: cell-based; conditions: 96 h
[55] = test system: SF-539; assay: In vitro cytotoxic efficacy (MTT); format: cell-based; conditions: Homo sapiens, CNS, 96 h
[56] = test system: CCRF-CEM; assay: In vitro cytotoxic efficacy (MTT); format: cell-based; conditions: Homo sapiens, Leukemia, 96 h
[57] = test system: 786-0; assay: In vitro cytotoxic efficacy (MTT); format: cell-based; conditions: Homo sapiens, Renal, 96 h
[58] = test system: HL-60 (TB); assay: In vitro cytotoxic efficacy (MTT); format: cell-based; conditions: Homo sapiens, Leukemia, 96 h
[59] = test system: SN12C; assay: In vitro cytotoxic efficacy (MTT); format: cell-based; conditions: Homo sapiens, Renal, 96 h

**Q.** Which results are given for C\C(=C/C=C/C=C/CC/C=C/C(C)C(O)C(C)C(O)/C=C/C=C/C=C/C=C/C=C/C=C/CC(OS(=O)(=O)O)C(C)C(=O)CC(O)CC(O)/C=C/CC(O)CC(O)CC(O)/C=C/CC(O)CC(O)/C=C/CC(O)CC(O)CCCNC(=N)N)C(=O)O (stereo not shown) [Compound 1]?
**A.** IC50 ([1]; CNS, SNB-19, 96 h, MTT, read-out: IC50): 10 µM; IC50 ([2]; SK-OV-3, Ovarian, SK-OV3, 96 h, MTT, read-out: IC50): 15 µM; IC50 [3]: 10 µM; IC50 ([4]; Non-small cell lung, A549/ATCC, 96 h, MTT, read-out: IC50): 12 µM; IC50 ([5]; Breast, MCF7, 96 h, MTT, read-out: IC50): 18 µM; IC50 [6]: 11 µM; MIC ([7]; 24 h): 4 µg/mL (≈ 3.28 µM); MIC ([8]; 24 hrs): 4 µg/mL (≈ 3.28 µM); MIC ([9]; 24 hrs): 4 µg/mL (≈ 3.28 µM); IC50 ([10]; HT-29, Colon, HT29, 96 h, MTT, read-out: IC50): 23 µM; IC50 [11]: 15 µM; IC50 ([12]; Non-small cell lung, NCI-H460, 96 h, MTT, read-out: IC50): 13 µM; IC50 [13]: 12 µM; MIC ([14]; 24 hrs): 8 µg/mL (≈ 6.57 µM); IC50 [15]: 8 µM; IC50 [16]: 12 µM; MIC ([17]; C. albicans (Ctro), 24 hrs): 4 µg/mL (≈ 3.28 µM); IC50 [18]: 13 µM

**Q.** Which results are given for C\C(=C/C=C/C=C/CC/C=C/C(C)C(O)C(C)C(O)/C=C/C=C/C=C/C=C/C=C/C=C/CC(O)C(C)C(=O)CC(O)CC(O)/C=C/CC(O)CC(O)CC(O)/C=C/CC(O)CC(O)/C=C/CC(O)CC(O)CCCNC(=N)N)C(=O)O (stereo not shown) [Compound 2]?
**A.** IC50 [19]: 0.1 µM; IC50 ([1]; SNB-19, 96 h): > 25 µM; IC50 [20]: 0.4 µM; IC50 [21]: 6 µM; IC50 [22]: 0.8 µM; IC50 ([2]; SK-OV-3, 96 h): > 25 µM; IC50 [3]: 4 µM; IC50 ([4]; A549, 96 h): 7 µM; IC50 [23]: > 25 µM; IC50 ([5]; MCF7, 96 h): 0.3 µM; IC50 [24]: 5 µM; IC50 [25]: 0.9 µM; IC50 [26]: 0.9 µM; IC50 [27]: 8 µM; IC50 [28]: 3 µM; IC50 [29]: 24 µM; IC50 [30]: 4 µM; MIC ([7]; 48 h): 4 µg/mL (≈ 3.51 µM); IC50 [31]: 6 µM; IC50 [32]: 5 µM; IC50 [33]: 8 µM; IC50 [34]: 1 µM; IC50 [35]: 4 µM; IC50 [36]: 6 µM; IC50 [37]: 2 µM; MIC ([8]; 48 hrs): 4 µg/mL (≈ 3.51 µM); IC50 [38]: 0.6 µM; MIC ([9]; 48 hrs): 4 µg/mL (≈ 3.51 µM); IC50 ([10]; HT-29, 96 h): 4 µM; IC50 [39]: 2 µM; IC50 [40]: > 25 µM; IC50 [41]: 6 µM; IC50 [42]: 2 µM; IC50 [43]: 1 µM; IC50 [44]: 7 µM; IC50 [45]: 10 µM; IC50 ([12]; NCI-H460, 96 h): 2 µM; IC50 [13]: 9 µM; IC50 [46]: > 25 µM; IC50 [47]: 8 µM; IC50 [48]: 8 µM; IC50 [49]: > 25 µM; MIC ([14]; 48 hrs): 8 µg/mL (≈ 7.03 µM); IC50 [50]: 7 µM; IC50 [51]: 0.5 µM; IC50 [52]: 13 µM; IC50 [53]: 2 µM; IC50 [54]: 8 µM; IC50 [55]: 3 µM; MIC ([17]; 48 h): 4 µg/mL (≈ 3.51 µM); IC50 [56]: > 25 µM; IC50 [57]: 8 µM; IC50 [58]: 17 µM; IC50 [18]: 6 µM; IC50 [59]: 7 µM
